Test results published in patent publication US11840527B2, “Non-fused thiophene derivatives and their uses” (ENYO PHARMA, priority 2018, dated 2023).

How the values were obtained:
[1] = target: T1, CISD3 Gene Product (Miner2) (Homo sapiens, UniProt P0C7P0); assay: Stability of Fe-S cluster binding of purified NEET protein (absorbance 458 nm); type: biochemical; details: for Residual cluster bound at end of experiment (Percentage Absorbance 458 nm at time zero): CISD3 gene product, at 180 minutes, vehicle control (DMSO) 11%; for Residual cluster bound at end of experiment (Percentage Absorbance 458 nm at time zero) / Time (in minutes) to achieve 50% loss of bound cluster (Absorbance 458 nm): 60 μM compound; for Stabiliser of Fe—S cluster binding (time to 50% loss increased by more than 25% vs control) / Time (in minutes) to achieve 50% loss of bound cluster (Absorbance 458 nm): Miner2; for Stabiliser of Fe—S cluster binding (time to 50% loss increased by more than 25% vs control): at the concentrations tested; for Time (in minutes) to achieve 50% loss of bound cluster (Absorbance 458 nm): pH 6, 37° C., 20 μM protein, run time 180 minutes, vehicle control 60
T1 sequence (P0C7P0 15-127): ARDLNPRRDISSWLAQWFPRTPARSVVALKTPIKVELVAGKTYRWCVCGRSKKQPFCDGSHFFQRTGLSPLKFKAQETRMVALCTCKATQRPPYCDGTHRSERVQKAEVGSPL
Method: (§1) The modulator effect on the NEET proteins encoded by human CISD1, CISD2, and CISD3 genes by the compounds of the invention has been tested and is reported below. Particularly, the biochemical function of the NEET proteins is measured by the stability of Fe—S cluster binding of the purified NEET proteins.
(§2) The Fe—S cluster binding capacity of NEET proteins is known to be coordinated by four amino-acids in a stretch of 16 (three Cysteine and one Histidine). As the lability of the Fe—S cluster of NEET proteins is sensitive to the environment, cluster stability measurements are one of the measures of interactions of NEET proteins with small molecules and compounds. NEET protein/2Fe-2S cluster stability can be assessed by monitoring the decay in absorbance of its characteristic 458-nm peak (characteristic of the oxidized 2Fe-2S cluster) over time. Each NEET protein (mitoNEET, NAF-1 and Miner 2) was tested for its Fe—S binding in the absence or presence of a compound according to the invention (see table 3 below). The rate of cluster release (time in minutes to achieve 50% loss of bound Fe—S cluster) was compared for each NEET protein in the presence of one of the compounds of the invention (in a 1:3 protein:compound molar ratio) relative to each protein alone.
(§3) At pH 6, all the three NEET proteins (mitoNEET, NAF-1 and Miner 2) have a characteristic rate of loss of the bound Fe—S cluster that can be measured by the decrease of absorbance at wavelength 458 nm over time, using a spectrophotometer. Thus, Bis-Tris buffer (100 mM Bis-Tris pH6, 100 mM Nacl) was used at pH 6 to dilute either DMSO (Blank sample: Bis-Tris Buffer pH 6, 66 μM DMSO), DMSO and one of the three NEET proteins (Control sample: Bis-Tris Buffer pH 6, 66 μM DMSO, 20 μM purified NEET protein) or DMSO, one of the three NEET proteins and a compound of the invention (Test sample: Bis-Tris Buffer pH 6, 66 μM DMSO, 20 μM purified NEET protein, 60 μM compound of the invention).
(§4) A reaction mix containing DMSO diluted in the Bis-Tris Buffer with or without a compound of the invention was prepared. The purified NEET protein was the last component added to the reaction mix which was then aliquoted into 4 replicates in 96 wells plates. The absorbance at wavelength 458 nm was taken at 5 minutes intervals at 37° C. with a spectrofluorimeter. The assay run time for CISD2 gene product (NAF-1) was 500 minutes and 180 minutes for both the CISD 1 gene product (mitoNEET) and the CISD3 gene product (Miner 2).
(§5) In addition to time monitoring, residual bound Fe—S cluster to NEET protein was measured at the final point of the spectrometry assay for each Test sample and compared to the Control sample data (in parenthesis table 3). This residual binding is measured by the differential percentage between the absorbance 458 nm at time zero and the absorbance 458 nm at the end of the experiment (i.e. respectively 500 or 180 minutes as described hereabove), showing the percentage of NEET protein still able to bind Fe—S cluster.
(§6) Analysis of the absorbance enables the time for which 50% loss of bound Fe—S cluster is reached (i.e. a 50% absorbance decrease at 458 nm) for each Test sample and each Control sample (in parenthesis table 3) to be determined. The data are then compared to determine whether the compound of the invention stabilizes or destabilizes the NEET protein/Fe—S cluster binding.
(§7) Stabilisers of Fe—S cluster binding by the NEET proteins slow the release of bound Fe—S (i.e. increase the time needed to reach 50% Fe—S cluster bound loss by more than 25% for the Test sample compared to the Control sample). As illustrated by table 3, at the concentrations tested, stabilisers of CISD1 Gene Product (mitoNEET) are the compounds #9, #18, #26, #2, #1, and #42. Stabilisers of CISD2 Gene Product (NAF-1) are the compounds #2, #1, and #40. Stabilisers of CISD3 Gene Product (Miner2) are the compounds #9, #18, #26, #2, #1, and #42.

[2] = target: T2, CISD2 Gene Product (NAF-1) (Homo sapiens, UniProt Q8N5K1); assay: as above; type: biochemical; details: for Residual cluster bound at end of experiment (Percentage Absorbance 458 nm at time zero): at 500 minutes, vehicle control 3%; for Residual cluster bound at end of experiment (Percentage Absorbance 458 nm at time zero) / Time (in minutes) to achieve 50% loss of bound cluster (Absorbance 458 nm): 60 μM compound; for Stabiliser of Fe—S cluster binding (time to 50% loss increased by more than 25% vs control): at the concentrations tested; for Time (in minutes) to achieve 50% loss of bound cluster (Absorbance 458 nm): pH 6, 37° C., 20 μM protein, run time 500 minutes, vehicle control 310
T2 sequence (Q8N5K1 57-135 limits assumed): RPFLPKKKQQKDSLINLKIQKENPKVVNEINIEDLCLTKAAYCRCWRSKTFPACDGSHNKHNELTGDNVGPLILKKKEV
Method: as §1, §2, §3, §4, §5, §6, §7

[3] = target: T3, CISD1 Gene Product (mitoNEET) (Homo sapiens, UniProt Q9NZ45); assay: as above; type: biochemical; details: for Residual cluster bound at end of experiment (Percentage Absorbance 458 nm at time zero): at 180 minutes, vehicle control 16%; for Residual cluster bound at end of experiment (Percentage Absorbance 458 nm at time zero) / Time (in minutes) to achieve 50% loss of bound cluster (Absorbance 458 nm): 60 μM compound; for Stabiliser of Fe—S cluster binding (time to 50% loss increased by more than 25% vs control): at the concentrations tested; for Time (in minutes) to achieve 50% loss of bound cluster (Absorbance 458 nm): pH 6, 37° C., 20 μM protein, run time 180 minutes, vehicle control 80
T3 sequence (Q9NZ45 33-108 limits assumed): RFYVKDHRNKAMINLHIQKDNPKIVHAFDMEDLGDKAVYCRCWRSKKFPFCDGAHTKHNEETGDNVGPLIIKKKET
Method: as §1, §2, §3, §4, §5, §6, §7

[4] = system: H1N1 (influenza A/New Caledonia/20/99); assay: Antiviral effect on A549 cells infected with H1N1; type: cell-based, H1N1 A/New Caledonia/20/99 virus; details: Influenza A virus, MOI 0.1, 48 h post-infection, MUNANA neuraminidase readout
Method: The antiviral effect of the compounds of the invention have been tested on A549 cell lines infected with H1N1 (influenza A/New Caledonia/20/99).
Human A549 cells (80,000 cells/well in a 96 well plate) were treated with a range of concentration of test compounds and immediately infected by H1N1 A/New Caledonia/20/99 virus (clinical isolate) at MOI of 0.1 in DMEM/1% Penicillin/streptomycin supplemented with […] TPCK trypsin (Sigma) and incubated at 37° C. in 5% CO2. 48 h post-infection, supernatants (25 μl) were collected and transferred into a 96-well black flat-bottom plate, mixed with 25 μl PBS with Ca++/Mg++ (Thermo Fisher) and 50 μl of 2′-(4-Methylumbelliferyl)-ax-D-N-acetylneuraminic acid sodium salt hydrate stock-solution (20 μM, MUNANA, Sigma). Plates were incubated 1h at 37° C. and reaction is stopped by adding 100 μl of Stop Solution (glycine 0.1 M pH10.7/25% ethanol). The amount of fluorescent product released by MUNANA hydrolysis (4-MU) was measured in a Tecan spectrophotometer with excitation and emission wavelengths of 365 and 450 nm respectively.

NFκB = NFκB reporter assay, TNFα stimulation of A549 reporter cells; type: cell-based; details: Homo sapiens; A549 NFκB-NanoLuciferase reporter cells, 4 ng/ml TNFα, 6 hours
Source text: Compounds of the present invention have been tested for their capacity to inhibit NFκB.
The NFκB reporter construct was made by cloning 5 NFκB responsive elements upstream of a NanoLuciferase reporter gene flanked by AAVS1 genomic sequences.
NFκB Responsive element fused with NanoLuciferase and SV40 late Poly(A) signal was amplified from pNL3.2-NFκB-Nluc (Promega) using NFκB-NLUC-F and NFκB-NLUC-R primers and inserted by Infusion (TaKaRa) in AAVS1 SA-2A-puro-pA donor plasmid (Hockemeyer et al, Nat Biotechnol. 2009, 27, 851-7) digested by Sall. pCRISPR AAVS1-T2 expressing a guide RNA (gRNA) to target human AAVS1 (T2 target sequence) was constructed by inserting AAVS1-T2A hybridized primers in pLentiCRISPR v2-blast (Sanjana et al, Nat Methods. 2014, 11, 783-4) digested by Bsmb1.
A549 cells were transfected by the plasmids and puromycine selected for 5 days (1 μg mL-1). Then clones were obtained by limiting dilution and selected to maximize TNFα dependent NFkB-NanoLuciferase induction.
The reporter cells were seeded on a 96-well plate for overnight with DMEM including 10% FBS. Test compounds were added at varying concentrations. The cells then were treated with 4 ng/ml TNFα (Peprotech, ref E251) in DMEM+10% FBS. NanoGlo luciferase assay (Promega) was carried out 6 hours later. Luminescence was measured using a Spark 20M spectrofluorimeter (Tecan). Values were normalized to the luminescence measured in untreated cells.

Compound | Residual cluster bound at end of experiment (Percentage Absorbance 458 nm at time zero) [1] | Stabiliser of Fe—S cluster binding (time to 50% loss increased by more than 25% vs control) [1] | Time (in minutes) to achieve 50% loss of bound cluster (Absorbance 458 nm) [1] | Residual cluster bound at end of experiment (Percentage Absorbance 458 nm at time zero) [2] | Stabiliser of Fe—S cluster binding (time to 50% loss increased by more than 25% vs control) [2] | Time (in minutes) to achieve 50% loss of bound cluster (Absorbance 458 nm) [2] | Residual cluster bound at end of experiment (Percentage Absorbance 458 nm at time zero) [3] | Stabiliser of Fe—S cluster binding (time to 50% loss increased by more than 25% vs control) [3] | Time (in minutes) to achieve 50% loss of bound cluster (Absorbance 458 nm) [3] | IC50 [4] [nM] | EC50 (NFκB) [nM]
O=C(Nc1scc(-c2ccc(Cl)cc2)c1C(=O)O)c1ccccc1 [Compound #1, 2-Benzamido-4-(4-chlorophenyl)thiophene-3-carboxylic acid] | 47% (11%) | Stabilisers | 85 (60) minutes | 13% (3%) | Stabilisers | 425 (310) minutes | 29% (16%) | stabilisers | 100 (80) minutes | 298 | 
O=C(Nc1scc(C2CC3CCC2C3)c1C(=O)O)c1ccccc1 (stereo not drawn) [Compound #9, 2-Benzamido-4-norbornan-2-yl-thiophene-3-carboxylic acid] | 57% (11%) | Stabilisers | during 180 minutes | 17% (3%) |  | 370 (310) minutes | 20% (16%) | stabilisers | 100 (80) minutes | 210 | 1100
O=C(Nc1scc(C2CCCCC2)c1C(=O)O)c1ccccc1 [Compound #26, 2-Benzamido-4-cyclohexyl-thiophene-3-carboxylic acid] | 52% (11%) | Stabilisers | during 180 minutes | 18% (3%) |  | 355 (310) minutes | 36% (16%) | stabilisers | 105 (80) minutes | 745 | 
Cc1c(-c2ccccc2)sc(NC(=O)c2ccccc2)c1C(=O)O [Compound #40, 2-Benzamido-4-methyl-5-phenyl-thiophene-3-carboxylic acid] | 24% (11%) |  | 70 (60) minutes | 9% (3%) | Stabilisers | 390 (310) minutes | 6% (16%) |  | 95 (80) minutes | 2470 | 
Cc1ccccc1C(=O)Nc1scc(-c2ccccc2)c1C(=O)O [Compound #42, 2-[(2-Methylbenzoyl)amino]-4-phenyl-thiophene-3-carboxylic acid] | 37% (11%) | Stabilisers | 75 (60) minutes | 2% (3%) |  | 330 (310) minutes | 24% (16%) | stabilisers | 100 (80) minutes | 5870 | 
CC1(c2csc(NC(=O)c3ccc(NCC4CCOCC4)cc3)c2C(=O)O)CC1 [Compound #111, 4-(1-Methylcyclopropyl)-2-[[4-(tetrahydropyran-4-ylmethylamino)benzoyl]amino]thiophene-3-carboxylic acid] |  |  |  |  |  |  |  |  |  | 200 | 2200
